Results reported in US20250263388A1, “NOVEL COMPOUND BASED ON VALEROLACTONE AND MEDICINE” (priority 2018, published 2025).

What was measured:
[1] = test system: ALS; conditions: cited from earlier work; for efficacy in clinical trials: ALS therapeutic drug candidates
[2] = test system: NSC-34 cells; experiment: ROS assay; type: cell-based, mouse
Method: The ROS assay is a test in which the test substances are evaluated for their ability to eliminate the ROS produced by a cell under stress. The ROS assay was performed by culturing NSC-34 cells in a medium from which serum (FBS) had been removed, and measuring the increased ROS produced at that time using CM-H2DCFDA.
NSC-34 cells were suspended in phenol red free DMEM medium, and NSC-34 cells were seeded at a target concentration of 4×10^4 cells/well in a 96-well plate at 200 μL/well.
Then, the medium was completely removed from the 96-well plate, DMEM ([-] phenol red) was added at 200 μL/well, and then the test substance dissolved in DMSO (or solvent only) was added at 0.4 μL/well. […] And placed in the incubator for 1 hour. One hour later, the fluorescence intensity (excitation wavelength 485 nm, fluorescence wavelength 520 nm) was measured using a fluorescence microplate reader.
The test was performed 2 to 4 times in quadruplicate. As a positive control, 30 μg/mL (120 μM) trolox was used. From the measurement result obtained with the test substance, the relative intensity to trolox was calculated by the following formula (1).

[3] = test system: differentiated NSC-34 cells; experiment: ODAP-EA assay (reducing effect on motor excitotoxicity); type: cell-based, mouse
Description: ODAP-EA assay was invented by the present inventor as a test for measuring the reducing effect on motor exciotoxicity (Kusama-Eguchi K, et. al. Food Chem Toxicol., 49, 636-643 (2011)). In the ODAP-EA assay, differentiated NSC-34 cells were subjected to excitotoxicity in NSC-34 cells by adding ethacrynic acid (EA), which has a mitochondrial glutathione level-lowering effect, and L-β-ODAP, which is a neurotoxic amino acid. Then, the effect of reducing the excitotoxicity of the test substance is evaluated.
NSC34 cells were cultivated in a Rich medium in a […] until they became confluent, and then the Rich medium in the dish was removed. […] The replacement of the Poor medium once a day was repeated about 3 to 5 times to promote the differentiation of NSC-34 cells.
The NSC-34 cells differentiated as described above were suspended in Poor medium and seeded in a 96-well plate at a target concentration of 4×10^4 cells/well at 200 μL/well. […]
Then, 110 μL of the medium in the well plate was removed, 10 μL/well of AlamarBlue™ previously returned to room temperature was added, and the plate was placed in an incubator at 37° C. under 5% CO2 condition. After about 1 hour, the fluorescence intensity (excitation wavelength: 544 nm, fluorescence wavelength: 590 nm) was measured using a fluorescence plate reader. […]

[4] = test system: ALS model mice holding SOD1-G93A gene; experiment: Change in the body weight of ALS model mice, administration test 1; type: in vivo; conditions: 1 mg/kg and 10 mg/kg, oral once a day from 60 days after birth
Method: (§1) ALS model mice holding SOD1-G93A gene were used for the experiment. The first generation mouse was generated by bleeding a 6-week-old SOD1-G93A transgenic male (B6SJL-Tg (SOD1-G93A) 1Gur/J, imported from The Jackson Laboratory, USA) with 8-week-old C57BL/6J female mice (designated as F1 as shown below), and placed in the same cage for 1 week for mating.
(§2) Backcrossing was performed using the first backcross SOD1-G93A gene-bearing male mouse (FuBk1) and C57BL/6J female mouse (F1) produced as described above, and the resulting mouse carrying the SOD1-G93A gene was backcrossed with C57BL/6J female mice, which was the second mouse (FuBk2) They were used in the preliminary test described below. A male mouse (FuBk2) carrying the SOD1-G93A gene was further crossed with an F1 female mouse to prepare a third backcrossed mouse (FuBk3) and a fourth backcrossed mouse (FuBk4), which will be described later as the final examination.
Subject animal: The second backcrossed mice (FuBk2) holding SOD1-G93A were determined by genotyping, and were used for the treatment experiment from 60 days after birth (pre-symptomatic period). A total of 16 animals were used as test animals (n=16).
The test substance dissolved in DMSO was prepared at a concentration shown in Table 12 using a 2.5% DMSO (final concentration) solution as a solvent. […]
The body weight was measured twice a week. […]

[5] = test system: ALS model mice holding SOD1-G93A gene; experiment: Motor performance (Rota-rod test) in ALS model mice; type: in vivo, mouse
Method: as §1
Backcrossing was performed using the first backcross SOD1-G93A gene-bearing male mouse (FuBk1) and C57BL/6J female mouse (F1) produced as described above, and the resulting mouse carrying the SOD1-G93A gene was backcrossed with C57BL/6J female mice, which was the second mouse (FuBk2) They were used in the preliminary test described below. […]
(§3) The test substance was evaluated based on two points: the survival days of mice and motor function. Regarding the number of days of survival, the number of days until the mouse was determined to be dead (including surrogate death) was evaluated. Motor function was evaluated by a motor test using the Rota-rod method.
In order to investigate the onset time of ALS-like symptoms in the test subject mouse, the motor function of the mouse was measured once a week by the Rota-rod method using a ROTA-ROD TREADMILL for MICE MK-600 (Muromachi). […] Those who fell twice in 300 seconds or less were regarded as mice showing the symptoms of motor inability, and the latency (seconds) until they fell was also measured. […]

[6] = test system: ALS model mice holding SOD1-G93A gene; experiment: Survival days (Kaplan-Meier) in ALS model mice; type: in vivo, mouse
Method: as §1, §2, §3
A mouse that lost its righting reflex and could not return to the correct posture within 20 seconds was determined to be a surrogate death.
The test results were analyzed by the Kaplan-Meier method, and the p-value and median were obtained by the Log-Rank test or the Wilcoxon test. The latency between control and YY-1 group after developing of the motor inability was analyzed by T-test for each measuring point.
Of the third backcrossed mouse (FuBk3) carrying the SOD1-G93A gene, a total of 51 male and female mice determined to carry the SOD1-G93A gene by genotyping, and were used as test animals.
The test drug was prepared at a concentration shown in Table 14 using a 1% DMSO+2% Tween 20 solution as a solvent. The test substance was orally administered to mice using a sterilized disposable sonde. According to Table 13 above, the test substance in an amount corresponding to the body weight was […] administered to the mouse.
A total of 52 determined female mice were used as test animals.
The test substance was administered to the mouse once a day from 105 days after birth using a sterilized disposable oral probe at 0.1 mL/10 g (body weight) (10 mg/kg).

[7] = test system: SOD1-G93A-introduced N2a cells; experiment: Dual-luciferase assay (SOD1-G93A gene introduced into N2a cells); conditions: positive control resveratrol
[8] = 5 mg/kg oral once a day from about 45 days after birth, FuBk3 mice, tendency, p=0.090
[9] = 10 mg/kg oral once a day from 105 days after birth, FuBk4 mice, p=0.029

For `CC(=O)N[C@@H](CS)C(=O)O` [N-acetylcysteine], the “efficacy in clinical trials” value [1] is listed as “no efficacy”.
In the case of `C/C=C/C=C/[C@H]1OC(=O)CC[C@@H]1O` [YY-1, (5S,6R)-5-hydroxy-6-[(1E,3E)-penta-1,3-dien-1-yl] tetrahydro-2H-pyran-2-one], the “ROS scavenging action relative to trolox” value ([2]; relative to 30 μg/mL (120 μM) trolox, serum-free medium, test substance 10, 30 or 100 μg/mL) is reported as “about 20%”, the “ROS assay activity relative to 322-Ext at the same concentration” value ([2]; same concentration as 322-Ext) is reported as “about 40%” and the “relative strength with respect to 4 mM NAC (highest)” value ([3]; 0.1 to 3.0 μg/mL (0.55 to 16.5 μM)) is reported as no more than 20%. For the same compound, the ODAP-EA toxicity-reducing effect ([3]; all concentrations of 0.1 to 100 μg/mL (0.55 to 550 μM)) was “strong ODAP-EA toxicity-reducing effect”, the “toxicity to the ALS model mouse (presumed from body weight)” value [4] was “no or low toxicity” and the body weight change ([4]; FuBk2 male mice) was “no significant weight loss”. For the same compound, the “prolongation of development of motor disability vs control, median” value ([5]; 5 mg/kg oral once a day from about 45 days after birth, FuBk3 mice, tendency, p=0.12) was 7 days, the “delay effect in motor dysfunction” value ([5]; 10 mg/kg oral once a day from 105 days after birth, FuBk4 mice) was “about 7 days” and the “extension of survival days vs control, average value” [6, 8] was “about 5 days”. For the same compound, the “extension of survival days vs control, median value” [6, 8] was 8 days, the “prolongation of survival days vs control, mean value” [6, 9] was “about 6 days” and the “prolongation of survival days vs control, median value” [6, 9] was 5 days. The “luminescence intensity in excess of the positive control” value ([7]; 0.1 μg/mL (0.55 μM)) was “about 40%” and the “luminescence intensity in excess of the positive control” value ([7]; 1 μg/mL (5.5 μM)) was “about 40%”.
In the case of `COC1=C(OC)C(=O)C(C/C=C(\C)CC/C=C(\C)CC/C=C(\C)CC/C=C(\C)CC/C=C(\C)CC/C=C(\C)CC/C=C(\C)CC/C=C(\C)CC/C=C(\C)CCC=C(C)C)=C(C)C1=O` [coenzyme Q10], the “efficacy in clinical trials” value [1] is listed as “no efficacy”.
For `N[C@@H](CCC(=O)N[C@@H](CS)C(=O)NCC(=O)O)C(=O)O` [glutathione], the “efficacy in clinical trials” value [1] is listed as “no efficacy”.
In the case of `C/C1=C2/[N-][C@H]([C@H](CC(N)=O)[C@@]2(C)CCC(=O)NC[C@@H](C)OP(=O)([O-])O[C@H]2[C@@H](O)[C@@H](n3cnc4cc(C)c(C)cc43)O[C@@H]2CO)[C@]2(C)N=C(/C(C)=C3N=C(/C=C4N=C1[C@@H](CCC(N)=O)C\4(C)C)[C@@H](CCC(N)=O)[C@]\3(C)CC(N)=O)[C@@H](CCC(N)=O)[C@]2(C)CC(N)=O.[CH3-].[Co+3]` [methylcobalamin], the “efficacy in clinical trials” value [1] is given as “no efficacy”.
In the case of “IGF-1: Insulin-like growth factor-1, protein expected to have an action of preventing motor nerve loss”, the “outcome of clinical trials (Phase 3)” value ([1]; Non-Patent Document 5) is given as “unsuccessful”.
